Measurements taken from ChEMBL document CHEMBL1149426 (Bioorg Med Chem Lett, 2006).

Experiments:
Rattus norvegicus = assay: Ability to restitute huddling in rat at 2.15 mg/kg, po; format: functional
Liver microsomes [1] = assay: Metabolic stability in human liver microsomes; format: ADME, Microsome
D(1A) dopamine receptor = D(1A) dopamine receptor (Homo sapiens, UniProt P21728); assay: Inhibitory activity against dopamine D1 receptor
[2] = biological target: GABA-A receptor; anion channel; assay: Inhibitory activity against central benzodiazepine receptor; format: protein-complex assay
[3] = Permeability across Caco-2 cell membrane; format: ADME, cell-based; details: human
[4] = biological target: Muscarinic acetylcholine receptor; assay: Inhibitory activity against muscarinic receptor; format: protein assay
[5] = Inhibitory activity against 5HT receptor
[6] = Inhibitory activity against neurotransmitter transporter
Cholecystokinin receptor = biological target: T1, Cholecystokinin receptor (Homo sapiens, UniProt P32239+P32238); assay: Inhibitory activity against cholecystokinin receptor; format: protein assay
T1 sequence (P32239 whole entry): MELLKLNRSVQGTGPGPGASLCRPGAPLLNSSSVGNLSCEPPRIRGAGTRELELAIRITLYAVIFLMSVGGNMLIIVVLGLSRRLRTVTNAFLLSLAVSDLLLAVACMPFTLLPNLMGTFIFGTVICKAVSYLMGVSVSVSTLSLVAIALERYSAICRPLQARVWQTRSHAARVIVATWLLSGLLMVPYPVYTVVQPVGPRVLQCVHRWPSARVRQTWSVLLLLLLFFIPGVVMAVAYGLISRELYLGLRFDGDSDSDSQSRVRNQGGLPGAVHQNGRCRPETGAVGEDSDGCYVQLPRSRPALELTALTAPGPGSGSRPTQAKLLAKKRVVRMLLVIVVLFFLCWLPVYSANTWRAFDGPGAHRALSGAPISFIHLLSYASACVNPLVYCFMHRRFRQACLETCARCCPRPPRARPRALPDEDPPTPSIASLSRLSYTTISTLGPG
T1 sequence (P32238 whole entry): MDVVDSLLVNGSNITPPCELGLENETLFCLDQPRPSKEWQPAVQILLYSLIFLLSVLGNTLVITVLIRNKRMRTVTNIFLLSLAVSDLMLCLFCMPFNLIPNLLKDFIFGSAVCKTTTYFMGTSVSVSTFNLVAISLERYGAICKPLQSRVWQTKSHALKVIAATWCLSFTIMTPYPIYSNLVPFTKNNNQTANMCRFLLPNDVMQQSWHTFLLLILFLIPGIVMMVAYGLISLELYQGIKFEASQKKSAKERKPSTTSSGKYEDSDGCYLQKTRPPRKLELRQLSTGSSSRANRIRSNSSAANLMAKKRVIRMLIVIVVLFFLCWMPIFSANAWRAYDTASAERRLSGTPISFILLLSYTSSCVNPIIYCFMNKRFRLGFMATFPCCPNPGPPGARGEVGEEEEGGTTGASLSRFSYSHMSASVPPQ

Adenosine receptor = Adenosine receptor (Homo sapiens, UniProt P30542+P29275+P0DMS8+P29274); assay: Inhibitory activity against adenosine receptor; format: protein assay
Liver microsomes [7] = assay: Metabolic stability in rat liver microsomes; format: ADME, Microsome
[8] = Inhibitory activity against adrenergic receptor
Canis familiaris = species: Canis familiaris; assay: Metabolic stability in dog liver microsomes; format: ADME, Canis lupus familiaris
D(2) dopamine receptor = D(2) dopamine receptor (Homo sapiens, UniProt P14416); assay: Binding affinity to human cloned dopamine D2 receptor
Sequence of D(2) dopamine receptor (P14416 whole entry): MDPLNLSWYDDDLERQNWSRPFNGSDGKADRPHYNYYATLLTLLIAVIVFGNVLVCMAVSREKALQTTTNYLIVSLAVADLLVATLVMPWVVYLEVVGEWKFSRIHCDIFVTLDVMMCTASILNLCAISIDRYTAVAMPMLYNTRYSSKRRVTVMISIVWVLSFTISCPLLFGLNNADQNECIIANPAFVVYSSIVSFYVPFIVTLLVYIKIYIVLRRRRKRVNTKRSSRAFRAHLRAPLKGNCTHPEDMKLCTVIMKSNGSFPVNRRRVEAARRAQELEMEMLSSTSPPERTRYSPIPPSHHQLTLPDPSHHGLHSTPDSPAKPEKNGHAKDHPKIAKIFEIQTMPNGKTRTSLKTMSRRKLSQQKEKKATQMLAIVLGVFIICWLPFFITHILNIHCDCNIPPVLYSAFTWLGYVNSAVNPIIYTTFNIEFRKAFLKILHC

[9] = Inhibitory activity against GABA receptor
[10] = biological target: Opioid receptors; mu/kappa/delta (Homo sapiens, UniProt P41145+P41143+P35372); assay: Inhibitory activity against opioid receptor; format: protein assay
D(1B) dopamine receptor = D(1B) dopamine receptor (Homo sapiens, UniProt P21918); assay: Inhibitory activity against dopamine D5 receptor
Sequence of D(1B) dopamine receptor (P21918 whole entry): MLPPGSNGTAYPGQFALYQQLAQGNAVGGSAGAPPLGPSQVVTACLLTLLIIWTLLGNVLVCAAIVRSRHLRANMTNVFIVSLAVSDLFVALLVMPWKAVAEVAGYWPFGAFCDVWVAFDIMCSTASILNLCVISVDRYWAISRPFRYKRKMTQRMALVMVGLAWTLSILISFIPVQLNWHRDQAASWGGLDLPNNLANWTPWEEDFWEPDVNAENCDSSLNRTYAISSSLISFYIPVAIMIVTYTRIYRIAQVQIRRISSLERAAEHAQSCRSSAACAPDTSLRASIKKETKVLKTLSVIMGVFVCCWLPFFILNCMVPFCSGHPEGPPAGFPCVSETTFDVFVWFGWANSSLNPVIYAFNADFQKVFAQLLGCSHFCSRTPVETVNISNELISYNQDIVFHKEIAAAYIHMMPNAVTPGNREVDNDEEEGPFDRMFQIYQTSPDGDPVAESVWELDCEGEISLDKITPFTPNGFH

D(3) dopamine receptor = D(3) dopamine receptor (Homo sapiens, UniProt P35462); assay: Binding affinity to human cloned dopamine D3 receptor
Sequence of D(3) dopamine receptor (P35462 whole entry): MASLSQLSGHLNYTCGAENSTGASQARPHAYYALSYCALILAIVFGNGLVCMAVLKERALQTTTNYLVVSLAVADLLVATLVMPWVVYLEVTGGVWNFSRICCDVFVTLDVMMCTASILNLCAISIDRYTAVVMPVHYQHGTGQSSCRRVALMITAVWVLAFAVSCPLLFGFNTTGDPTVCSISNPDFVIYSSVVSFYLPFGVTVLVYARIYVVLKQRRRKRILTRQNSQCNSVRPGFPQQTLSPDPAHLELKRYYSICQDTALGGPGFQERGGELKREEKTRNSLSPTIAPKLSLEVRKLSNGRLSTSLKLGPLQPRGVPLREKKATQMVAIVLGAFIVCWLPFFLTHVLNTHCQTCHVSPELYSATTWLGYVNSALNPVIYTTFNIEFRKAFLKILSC

Sequence of D(1A) dopamine receptor (P21728 whole entry): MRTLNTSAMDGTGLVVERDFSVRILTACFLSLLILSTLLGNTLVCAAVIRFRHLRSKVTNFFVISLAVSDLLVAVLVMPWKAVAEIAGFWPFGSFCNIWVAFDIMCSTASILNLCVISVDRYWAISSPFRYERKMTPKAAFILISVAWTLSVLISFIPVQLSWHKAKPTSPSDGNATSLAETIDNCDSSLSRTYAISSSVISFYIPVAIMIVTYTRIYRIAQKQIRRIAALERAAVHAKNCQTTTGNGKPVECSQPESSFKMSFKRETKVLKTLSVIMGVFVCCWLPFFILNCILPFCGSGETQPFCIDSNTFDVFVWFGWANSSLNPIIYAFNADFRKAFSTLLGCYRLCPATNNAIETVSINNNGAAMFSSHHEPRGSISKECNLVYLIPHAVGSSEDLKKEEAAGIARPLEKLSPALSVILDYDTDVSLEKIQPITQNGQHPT

CC(C)(C)c1nc(N2CCN(CCCCN3C(=O)CCC(=O)c4ccccc43)CC2)cc(C(F)(F)F)n1
Activity (Rattus norvegicus): 37%
Stability (Liver microsomes [1]): > 97%
IC50 (D(1A) dopamine receptor): > 10000 nM
IC50 [2]: > 10000 nM
Papp [3]: 0.33 ×10⁻⁶ cm/s
IC50 [4]: > 10000 nM
IC50 [5]: > 10000 nM
IC50 [6]: > 10000 nM
IC50 (Cholecystokinin receptor): > 10000 nM
IC50 (Adenosine receptor): > 10000 nM
Stability (Liver microsomes [7]): > 97%
IC50 [8]: > 10000 nM
Stability (Canis familiaris): > 97%
Ki (D(2) dopamine receptor): 246 nM
IC50 [9]: > 10000 nM
IC50 [10]: > 10000 nM
IC50 (D(1B) dopamine receptor): > 10000 nM

CC(C)(C)c1nc(N2CCN(CCCCN3C(=O)CCCc4c(O)cccc43)CC2)cc(C(F)(F)F)n1
Ki (D(2) dopamine receptor): 93 nM

CC(C)(C)c1nc(N2CCN(CCCCN3C(=O)CC(=O)c4ccccc43)CC2)cc(C(F)(F)F)n1
Ki (D(3) dopamine receptor): 39.6 nM
Ki (D(2) dopamine receptor): 142 nM

C/C(=C\CN1CCN(c2cc(C(F)(F)F)nc(C(C)(C)C)n2)CC1)CN1C(=O)CCc2ccccc21
Ki (D(3) dopamine receptor): 58.9 nM
Ki (D(2) dopamine receptor): 669 nM

CC(C)(C)c1nc(N2CCN(CCCCN3CCC(=O)CCC3=O)CC2)cc(C(F)(F)F)n1
Ki (D(3) dopamine receptor): 3.9 nM
Ki (D(2) dopamine receptor): 65 nM

CC(C)(C)c1nc(N2CCN(CCCCCN3C(=O)CCc4ccccc43)CC2)cc(C(F)(F)F)n1
Ki (D(3) dopamine receptor): 4050 nM

CC(C)(C)c1nc(N2CCN(C/C=C/CN3C(=O)CCc4ccccc43)CC2)cc(C(F)(F)F)n1
Ki (D(2) dopamine receptor): 254 nM

CC(C)(C)c1nc(N2CCN(CCCN3C(=O)CCc4ccccc43)CC2)cc(C(F)(F)F)n1
Ki (D(3) dopamine receptor): 93.8 nM

CC(C)(C)c1nc(N2CCN(CCCCn3c(=O)ccc4ccccc43)CC2)cc(C(F)(F)F)n1
Ki (D(3) dopamine receptor): 11.2 nM
Ki (D(2) dopamine receptor): 151 nM

COc1cccc2c1CCCC(=O)N2CCCCN1CCN(c2cc(C(F)(F)F)nc(C(C)(C)C)n2)CC1
Ki (D(3) dopamine receptor): 10.1 nM
Ki (D(2) dopamine receptor): 243 nM

C[C@@H](CCCN1C(=O)CCc2ccccc21)N1CCN(c2cc(C(F)(F)F)nc(C(C)(C)C)n2)CC1
Ki (D(3) dopamine receptor): 22.4 nM
Ki (D(2) dopamine receptor): 289 nM

COc1cc2c(cc1OC)N(CCCCN1CCN(c3cc(C(F)(F)F)nc(C(C)(C)C)n3)CC1)C(=O)CCC2=O
Ki (D(2) dopamine receptor): 467 nM

CC(C)(C)c1nc(N2CCN(CCCCN3C(=O)CCSc4ccccc43)CC2)cc(C(F)(F)F)n1
Ki (D(3) dopamine receptor): 9.6 nM
Ki (D(2) dopamine receptor): 83 nM

CC(C)(C)c1nc(N2CCN(CCCCN3C(=O)CCCc4ccccc43)CC2)cc(C(F)(F)F)n1
Ki (D(3) dopamine receptor): 16.8 nM
Ki (D(2) dopamine receptor): 118 nM

CC(C)(C)c1nc(N2CCN(CCCCN3C(=O)COc4ccccc43)CC2)cc(C(F)(F)F)n1
Ki (D(3) dopamine receptor): 12.1 nM
Ki (D(2) dopamine receptor): 354 nM

CC(C)(C)c1nc(N2CCN(CCCCN3C(=O)CCc4ccccc43)CC2)cc(C(F)(F)F)n1
Ki (D(3) dopamine receptor): 3.4 nM
Ki (D(2) dopamine receptor): 126 nM

C[C@H](CCN1CCN(c2cc(C(F)(F)F)nc(C(C)(C)C)n2)CC1)CN1C(=O)CCc2ccccc21
Ki (D(3) dopamine receptor): 64.9 nM
Ki (D(2) dopamine receptor): 261 nM

CC(C)(C)c1nc(N2CCN(CCCCN3Cc4ccccc4CC3=O)CC2)cc(C(F)(F)F)n1
Ki (D(3) dopamine receptor): 293 nM
